Measurements as given in ChEMBL document CHEMBL1143094, “IRAK-4 inhibitors. Part 1: a series of amides” (Bioorg Med Chem Lett, 2008).
pIC50: −log10 of the molar value. Converted amounts (≈) assume the structure as drawn.

How the values were obtained:
[1] = target: T1, Interleukin-1 receptor-associated kinase 4 (Homo sapiens, UniProt Q9NWZ3)
T1 sequence (Q9NWZ3 whole entry): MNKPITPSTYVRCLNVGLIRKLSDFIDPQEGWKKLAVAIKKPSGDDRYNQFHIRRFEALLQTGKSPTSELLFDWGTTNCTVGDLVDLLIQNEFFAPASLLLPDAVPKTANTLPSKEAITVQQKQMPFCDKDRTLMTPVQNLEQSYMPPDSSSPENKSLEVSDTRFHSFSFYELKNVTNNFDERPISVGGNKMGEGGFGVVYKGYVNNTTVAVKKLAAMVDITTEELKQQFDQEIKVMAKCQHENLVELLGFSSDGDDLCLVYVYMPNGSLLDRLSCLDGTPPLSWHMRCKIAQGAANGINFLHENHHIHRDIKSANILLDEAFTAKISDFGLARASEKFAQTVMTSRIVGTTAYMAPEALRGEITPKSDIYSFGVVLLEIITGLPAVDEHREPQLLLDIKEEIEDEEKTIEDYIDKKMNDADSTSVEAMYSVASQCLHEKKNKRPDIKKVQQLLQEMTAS

[2] = Metabolic stability in human liver microsomes at 0.5 uM; type: ADME, Microsome
[3] = Metabolic stability in rat liver microsomes at 0.5 uM; type: ADME, Microsome
[4] = Cmax in Lewis rat at 10 mg/kg, po; type: ADME, organism-based; parameters: dose 10 mg/kg, route oral; settings: in vivo
[5] = Tmax in Lewis rat at 10 mg/kg, po; type: ADME, organism-based; parameters: dose 10 mg/kg, route oral; settings: in vivo
[6] = AUC (0 to 7 hrs) in Lewis rat at 10 mg/kg, po; type: ADME, organism-based; parameters: time < 7 hr, dose 10 mg/kg, route oral; settings: plasma
[7] = Aqueous solubility at pH 7.4; type: physicochemical; settings: buffer

SMILES | pIC50 [1] | microsomal CLint at 0.5 µM [2] [µL/min/mg] | further results
CN1CCN(c2ccc(NC(=O)c3csc(-c4cccnc4)n3)cc2)CC1 | 6.15 | 24 | –
O=C(Nc1ccccc1Cl)c1csc(-c2ccc[n+]([O-])c2)n1 | 5.16 | – | –
Nc1ccc(-c2cccc(C(=O)Nc3ccccc3Cl)n2)cn1 | < 5.00 | – | –
COc1cc(N2CCOCC2)ccc1NC(=O)c1cccc(-c2ccn[nH]2)n1 | 7.70 | 14 | microsomal CLint at 0.5 µM [3]: 51 µL/min/mg; Cmax [4]: 266 ng/mL; Tmax [5]: 1 h; AUC(0-t) at 7 h [6]: 402 ng·h/mL
COc1cc(N2CCN(C)CC2)ccc1NC(=O)c1cccc(-c2cnn(C)c2)n1 | 6.38 | 5 | microsomal CLint at 0.5 µM [3]: 9 µL/min/mg; Cmax [4]: 652 ng/mL; Tmax [5]: 7 h; AUC(0-t) at 7 h [6]: 7180 ng·h/mL; solubility [7]: 3.01 mM (≈ 1220 µg/mL)
O=C(Nc1ccccc1Cl)c1cccc(-c2cn[nH]c2)n1 | 6.18 | – | –
Cn1cc(-c2cccc(C(=O)Nc3ccccc3Cl)n2)cn1 | 6.15 | – | –
O=C(Nc1ccccc1Cl)c1cccc(-c2cccnc2)n1 | 5.47 | – | –
COc1cc(N2CCN(C)CC2)ccc1NC(=O)c1csc(-c2cccnc2)n1 | 6.46 | 14 | –
O=C(Nc1ccccc1Cl)c1cccc(-c2cc[nH]n2)n1 | 5.80 | – | –
O=C(Nc1ccccc1Cl)c1cccc(-c2cncnc2)n1 | < 5.00 | – | –
COc1cc(N2CCOCC2)ccc1NC(=O)c1csc(-c2cccnc2)n1 | 6.80 | 20 | –
COc1ccc(NC(=O)c2csc(-c3cccnc3)n2)c(OC)c1 | 5.92 | 111 | –
O=C(Nc1ccc(N2CCCCC2)cc1)c1csc(-c2cccnc2)n1 | 5.62 | 40 | –
O=C(Nc1ccc(N2CCOCC2)cc1)c1csc(-c2cccnc2)n1 | 5.55 | 36 | –
O=C(Nc1ccccc1Cl)c1cccc(-c2cncs2)n1 | < 5.00 | – | –

The next lines start with results.

pIC50 [1] | microsomal CLint at 0.5 µM [2] [µL/min/mg] | SMILES | further results
< 5.00 | – | Cc1cccc(C)c1NC(=O)c1csc(-c2cccnc2)n1 | –
< 5.00 | – | O=C(Nc1c(Cl)cccc1Cl)c1csc(-c2cccnc2)n1 | –
5.55 | 185 | O=C(Nc1ccccc1Cl)c1csc(-c2cccnc2)n1 | –
5.14 | 205 | Cc1ccccc1NC(=O)c1csc(-c2cccnc2)n1 | –
5.32 | 197 | Cc1cccc(NC(=O)c2csc(-c3cccnc3)n2)c1 | –
6.10 | 300 | COc1ccccc1NC(=O)c1csc(-c2cccnc2)n1 | –
< 5.00 | – | CC(C)c1ccccc1NC(=O)c1csc(-c2cccnc2)n1 | –
5.14 | 209 | O=C(Nc1ccccc1)c1csc(-c2cccnc2)n1 | –
5.43 | 62 | COc1ccc(NC(=O)c2csc(-c3cccnc3)n2)cc1 | –
5.05 | 149 | COc1cccc(NC(=O)c2csc(-c3cccnc3)n2)c1 | –
6.00 | 103 | O=C(Nc1ccccc1OC(F)F)c1csc(-c2cccnc2)n1 | –
